Converted amounts (≈) assume the structure as drawn. “And” between values parts separate entries of the source, which are not always exact repeats. Equal entries are not always repeated.
What was measured:
Type in all cases: cell-based, Mycobacterium tuberculosis
[1] = tested on: 4-hydroxy-2-pyridone resistance mutants of Mtb
[2] = tested on: H37Rv∷pMV262-InhA strains; assay: microbe, parasite or virus in culture; details: for MIC50: Mycobacterium tuberculosis, H37RV, read-out: Compound MIC50
Mtb H37Rv = tested on: Mtb H37Rv

SMILES	Compound MIC50 [1]	fold more resistant than the parental H37Rv strain [1]	MIC50 [2]	Mutation frequency (Mtb H37Rv)	frequency of resistance (Mtb H37Rv)	resistance, MIC50 fold [1]	MIC50 fold shift with the Mtb H37Rv strain [2]	Compound MIC50 [2]
CC(C)Cc1cc(O)c(-c2ccccc2)c(=O)[nH]1 [NITD-529, 4-hydroxy-6-isobutyl-3-phenylpyridin-2(1H)-one]	> 40 µM	at least 25 fold	2.59 µM (≈ 0.63 µg/mL)	1.2×10^-8	1 × 10^−8	–	–	–
NNC(=O)c1ccncc1 [isoniazid]	–	–	0.51 µM (≈ 0.0699 µg/mL)	∼ 1× 10^-6	–	> 3 fold	0.51 (2.04×)	–
CCc1cc(C(N)=S)ccn1 [ethionamide]	–	–	–	–	–	> 3 fold	–	–
[H]/N=C(/N)N[C@H]1[C@H](O)[C@@H](O)[C@H](O[C@@H]2O[C@@H](C)[C@](O)(C=O)[C@H]2O[C@@H]2O[C@@H](CO)[C@H](O)[C@@H](O)[C@@H]2NC)[C@@H](N/C(N)=N\[H])[C@@H]1O [streptomycin]	0.1 µM and 0.09 µM and 0.08 µM and 0.06 µM	–	0.074 µM (≈ 0.043 µg/mL)	–	–	–	–	0.084 µM and 0.079 µM and 0.075 µM
